From patent publication US20220356186A1, “PERK INHIBITING PYRROLOPYRIMIDINE COMPOUNDS” (HiberCell, Inc., priority 2019, published 2022)
pIC50: −log10 of the molar value. Like-named read-outs stand apart in the source and are kept apart here.

Legend:
[1] = molecular target: T1, EIF2AK3 (PERK) catalytic domain (amino acids 536-1116) (Homo sapiens, UniProt Q9NZJ5); assay: PERK in vitro activity assay (isolated), TR-FRET kinase assay; assay type: biochemical; conditions: isolated PERK enzyme, 1.5 μM ATP; read-out: Biochemical IC50
T1 construct: EIF2AK3 (PERK) catalytic domain (amino acids 536-1116)
T1 sequence (Q9NZJ5 536-1116): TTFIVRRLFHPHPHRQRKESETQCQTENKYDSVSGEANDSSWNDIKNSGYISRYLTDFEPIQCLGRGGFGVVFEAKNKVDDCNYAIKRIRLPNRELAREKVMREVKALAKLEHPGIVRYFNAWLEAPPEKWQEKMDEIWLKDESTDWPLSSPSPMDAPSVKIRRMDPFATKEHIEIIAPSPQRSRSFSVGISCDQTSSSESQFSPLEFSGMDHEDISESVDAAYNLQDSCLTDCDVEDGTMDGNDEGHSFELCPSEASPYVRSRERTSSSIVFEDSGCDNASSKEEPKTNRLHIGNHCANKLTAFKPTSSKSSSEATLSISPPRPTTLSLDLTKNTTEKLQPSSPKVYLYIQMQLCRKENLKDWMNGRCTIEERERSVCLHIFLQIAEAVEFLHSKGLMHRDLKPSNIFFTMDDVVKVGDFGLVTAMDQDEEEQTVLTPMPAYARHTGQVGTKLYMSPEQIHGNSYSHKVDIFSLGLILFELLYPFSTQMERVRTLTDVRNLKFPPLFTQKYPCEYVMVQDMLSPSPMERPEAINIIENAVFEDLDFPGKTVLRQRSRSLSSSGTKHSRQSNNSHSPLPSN
Description: PERK In Vitro Activity Assay (Isolated):
In vitro Inhibition of PERK Enzyme Activity (isolated) Recombinant human EIF2AK2 (PKR) catalytic domain (amino acids 252-551), EIF2AK3 (PERK) catalytic domain (amino acids 536-1116), GFP-eIF2a substrate, and Terbium-labelled phospho-eIF2a antibody is obtained (Invitrogen, Carlsbad, Calif.).
Express and purify HIS-SUMO-GCN2 catalytic domain (amino acids 584-1019) from E. coli. Perform TR-FRET kinase assays in the absence or presence of inhibitors in a reaction buffer consisting of 50 mM HEPES, pH 7.5, 10 mM MgCb, 1.0 mM EGTA, and 0.01% Brij-35, and 100-200 nM GFP-eIF2a substrate. […] Add test compound, initiate the reaction by addition of enzyme, and incubate at room temperature for 45 minutes. Stop the reaction by addition of EDTA to a final concentration of 10 mM, add Terbium-labelled phospho-eIF2a antibody at a final concentration of 2 nM, and incubate for 90 minutes. Monitor the resulting fluorescence in an EnVison® Multilabel reader (PerkinElmer, Waltham, Mass.). Determine TR-FRET ratios and the resulting IC50 values using a 4-parameter nonlinear logistic equation as shown: Y=(A+((B−A)/(1+((C/x)[…])))) where, Y=% specific inhibition, A=Bottom of the curve, B=Top of the curve, C=absolute IC50 (concentration causing 50% inhibition), and D=hill slope.

[2] = system: GFP-eIF2α in HEK293 cells; assay: PERK cellular assay, TR-FRET in HEK293-EGFP-eIF2a cells after tunicamycin-induced ER stress; assay type: cell-based; conditions: HEK293-EGFP-eIF2a cells, tunicamycin 2 hours, read-out: Cellular eIF2α IC50
Experimental: Stable cell lines were created in HEK293 cells using lentiviral particles harboring an expression vector for GFP-eIF2α. Cells were selected using puromycin and enriched using fluorescence activated cell sorting against GFP. HEK293-EGFP-eIF2a cells were plated at 5000 cells/well in 384-well assay plates and incubated overnight at 37° C., 5% CO2. Inhibitor compounds were added to the wells by Echo acoustic dispensing and incubated for 30 minutes at 37° C., 5% CO2 prior to induction of ER stress by addition of tunicamycin to […] for 2 hours. Cells were lysed and TR-FRET was measured in an EnVision plate reader (PerkinElmer). FRET ratio data was normalized to signal from lysates treated with DMSO vehicle control and plotted as percent inhibition against 10-point; 3-fold dilution series of inhibitors. IC50 values were calculated using 4-parameter logistical fitting in XLFit.

| SMILES | pIC50 [1] | pIC50 ([2]; Homo sapiens, HEK293, 2 h) | pIC50 [2] | pIC50 ([2]; Homo sapiens) |
| --- | --- | --- | --- | --- |
| Cn1cc(-c2ccc(NC(=O)C(O)c3cccc(F)c3)cc2C(F)(F)F)c2c(N)ncnc21 (centres unmarked) [Example 16, N-(4-(4-amino-7-methyl-7H-pyrrolo[2,3-d]pyrimidin-5-yl)-3-(trifluoromethyl)phenyl)-2-(3-fluorophenyl)-2-hydroxyacetamide] | 7.60 to 9.00 | 6.60 to 7.00 |  |  |
| Cc1cc(NC(=O)Oc2ccccc2)ccc1-c1cn(C)c2ncnc(N)c12 [Example 169, phenyl (4-(4-amino-7-methyl-7H-pyrrolo[2,3-d]pyrimidin-5-yl)-3-methylphenyl)carbamate] | 5.40 to 5.52 |  |  | < 5.30 |
| Cc1nc(N)c2c(-c3ccc(NC(=O)C(O)c4ccccc4C)cc3Cl)cn(C)c2n1 (centres unmarked) [Example 93, N-(4-(4-amino-2,7-dimethyl-7H-pyrrolo[2,3-d]pyrimidin-5-yl)-3-chlorophenyl)-2-hydroxy-2-(o-tolyl)acetamide] | 6.00 to 6.30 |  | 5.52 to 5.70 |  |
| CCc1cccc(C(O)C(=O)Nc2ccc(-c3cn(C)c4nc(C)nc(N)c34)c(F)c2)c1 (centres unmarked) [Example 76, N-(4-(4-amino-2,7-dimethyl-7H-pyrrolo[2,3-d]pyrimidin-5-yl)-3-fluorophenyl)-2-(3-ethylphenyl)-2-hydroxyacetamide] | 7.60 to 9.00 |  | 7.60 to 9.00 |  |
| Cc1nc(N)c2c(-c3ccc(NC(=O)C(O)c4ccccc4F)cc3C)cn(C)c2n1 (centres unmarked) [Example 32, N-(4-(4-amino-2,7-dimethyl-7H-pyrrolo[2,3-d]pyrimidin-5-yl)-3-methylphenyl)-2-(2-fluorophenyl)-2-hydroxyacetamide] | 6.60 to 7.00 | 6.30 to 6.60 |  |  |
| Cc1nc(N)c2c(-c3ccc(NC(=O)C(O)c4cccc(Cl)c4)cc3F)cn(C)c2n1 (centres unmarked) [Example 81, N-(4-(4-amino-2,7-dimethyl-7H-pyrrolo[2,3-d]pyrimidin-5-yl)-3-fluorophenyl)-2-(3-chlorophenyl)-2-hydroxyacetamide] | 7.00 to 7.29 |  | 6.60 to 7.00 |  |
| Cc1cc(NC(=O)CCc2ccccc2)ccc1-c1cn(C)c2ncnc(N)c12 [Example 168, N-(4-(4-amino-7-methyl-7H-pyrrolo[2,3-d]pyrimidin-5-yl)-3-methylphenyl)-3-phenylpropanamide] | 6.60 to 7.00 | 5.70 to 6.00 |  |  |
| Cc1cc(NC(=O)C(O)c2cccc(F)c2)ccc1-c1cn(C)c2ncnc(N)c12 (centres unmarked) [Example 10, N-(4-(4-amino-7-methyl-7H-pyrrolo[2,3-d]pyrimidin-5-yl)-3-methylphenyl)-2-(3-fluorophenyl)-2-hydroxyacetamide] | 7.60 to 9.00 |  | 7.00 to 7.29 |  |
| Cc1nc(N)c2c(-c3ccc(NC(=O)C(O)c4cccc(Cl)c4)c(F)c3F)cn(C)c2n1 (centres unmarked) [Example 111, N-(4-(4-amino-2,7-dimethyl-7H-pyrrolo[2,3-d]pyrimidin-5-yl)-2,3-difluorophenyl)-2-(3-chlorophenyl)-2-hydroxyacetamide] | 7.60 to 9.00 |  | 7.60 to 9.00 |  |
| Cc1cc(NC(=O)Cc2ccc(F)cc2)ccc1-c1cn(C)c2ncnc(N)c12 [Example 140, N-(4-(4-amino-7-methyl-7H-pyrrolo[2,3-d]pyrimidin-5-yl)-3-methylphenyl)-2-(4-fluorophenyl)acetamide] | 7.60 to 9.00 | 7.30 to 7.59 |  |  |
| Cc1nc(N)c2c(-c3ccc(NC(=O)C(O)c4cccc(Cl)c4)cc3Cl)cn(C)c2n1 (centres unmarked) [Example 99, N-(4-(4-amino-2,7-dimethyl-7H-pyrrolo[2,3-d]pyrimidin-5-yl)-3-chlorophenyl)-2-(3-chlorophenyl)-2-hydroxyacetamide] | 7.60 to 9.00 |  | 7.60 to 9.00 |  |
| Cc1cc(NC(=O)Nc2ccccc2)ccc1-c1cn(C)c2ncnc(N)c12 [Example 170, 1-(4-(4-amino-7-methyl-7H-pyrrolo[2,3-d]pyrimidin-5-yl)-3-methylphenyl)-3-phenylurea] | 7.60 to 9.00 | 6.60 to 7.00 |  |  |
| Cc1nc(N)c2c(-c3ccc(NC(=O)C(O)c4cccc(F)c4)c(F)c3F)cn(C)c2n1 (single isomer, unassigned) [Example 109, N-(4-(4-amino-2,7-dimethyl-7H-pyrrolo[2,3-d]pyrimidin-5-yl)-2,3-difluorophenyl)-2-(3-fluorophenyl)-2-hydroxyacetamide] | 6.30 to 6.60 |  | 5.70 to 6.00 |  |

More lines, main results first:

| pIC50 [1] | SMILES | pIC50 ([2]; Homo sapiens, HEK293, 2 h) | pIC50 [2] | pIC50 ([2]; Homo sapiens) |
| --- | --- | --- | --- | --- |
| 7.60 to 9.00 | Cc1cc(NC(=O)Cc2ccc3ccccc3c2)ccc1-c1cn(C)c2ncnc(N)c12 [Example 152, N-(4-(4-amino-7-methyl-7H-pyrrolo[2,3-d]pyrimidin-5-yl)-3-methylphenyl)-2-(naphthalen-2-yl)acetamide] | 7.00 to 7.29 |  |  |
| < 5.30 | COc1cc(NC(=O)C(O)c2cccc(F)c2)ccc1-c1cn(C)c2nc(C)nc(N)c12 (single isomer, unassigned) [Example 105, N-(4-(4-amino-2,7-dimethyl-7H-pyrrolo[2,3-d]pyrimidin-5-yl)-3-methoxyphenyl)-2-(3-fluorophenyl)-2-hydroxyacetamide] |  | < 5.30 |  |
| 7.60 to 9.00 | Cc1nc(N)c2c(-c3ccc(NC(=O)C(O)c4cccc(F)c4)cc3Cl)cn(C)c2n1 (centres unmarked) [Example 92, N-(4-(4-amino-2,7-dimethyl-7H-pyrrolo[2,3-d]pyrimidin-5-yl)-3-chlorophenyl)-2-(3-fluorophenyl)-2-hydroxyacetamide] |  | 7.00 to 7.29 |  |
| 7.60 to 9.00 | Cn1cc(-c2ccc(NC(=O)C(O)c3cccc(F)c3)cc2OC(F)(F)F)c2c(N)ncnc21 (centres unmarked) [Example 18, N-(4-(4-amino-7-methyl-7H-pyrrolo[2,3-d]pyrimidin-5-yl)-3-(trifluoromethoxy)phenyl)-2-(3-fluorophenyl)-2-hydroxyacetamide] | 6.60 to 7.00 |  |  |
| 7.60 to 9.00 | Cc1cccc(CC(=O)Nc2ccc(-c3cn(C)c4ncnc(N)c34)c(C)c2)c1 [Example 143, N-(4-(4-amino-7-methyl-7H-pyrrolo[2,3-d]pyrimidin-5-yl)-3-methylphenyl)-2-(m-tolyl)acetamide] | 7.30 to 7.59 |  |  |
| 6.60 to 7.00 | Cc1nc(N)c2c(-c3ccc(NC(=O)C(O)c4cccc(C(F)(F)F)c4)c(F)c3F)cn(C)c2n1 (centres unmarked) [Example 108, N-(4-(4-amino-2,7-dimethyl-7H-pyrrolo[2,3-d]pyrimidin-5-yl)-2,3-difluorophenyl)-2-hydroxy-2-(3-(trifluoromethyl)phenyl)acetamide] |  | 6.60 to 7.00 |  |
| 7.60 to 9.00 | Cc1cc(NC(=O)Cc2ccccc2C(F)(F)F)ccc1-c1cn(C)c2ncnc(N)c12 [Example 157, N-(4-(4-amino-7-methyl-7H-pyrrolo[2,3-d]pyrimidin-5-yl)-3-methylphenyl)-2-(2-(trifluoromethyl)phenyl)acetamide] | 7.00 to 7.29 |  |  |
| 6.30 to 6.60 | Cc1nc(N)c2c(-c3ccc(NC(=O)C(O)c4cc(F)cc(C(F)(F)F)c4)c(F)c3F)cn(C)c2n1 (single isomer, unassigned) [Example 116, N-(4-(4-amino-2,7-dimethyl-7H-pyrrolo[2,3-d]pyrimidin-5-yl)-2,3-difluorophenyl)-2-(3-fluoro-5-(trifluoromethyl)phenyl)-2-hydroxyacetamide] |  | 6.30 to 6.60 |  |
| 7.30 to 7.59 | Cc1nc(N)c2c(-c3cnc(NC(=O)C(O)c4cccc(C(F)(F)F)c4)cc3C)cn(C)c2n1 (centres unmarked) [Example 131, N-(5-(4-amino-2,7-dimethyl-7H-pyrrolo[2,3-d]pyrimidin-5-yl)-4-methylpyridin-2-yl)-2-hydroxy-2-(3-(trifluoromethyl)phenyl)acetamide] |  | 6.30 to 6.60 |  |
